Experimental data taken from patent publication US20160193240A1, “Ulmoside-A: Useful For Prevention Or Cure Of Metabolic Diseases” (COUNCIL OF SCIENTIFIC & INDUSTRIAL RESEARCH, priority 2013, published 2016).

Experiments:
C2C12 myotubes = experiment: Mitochondrial DNA content by QRT-PCR in C2C12 myotubes; assay type: cell-based, mouse; details: 10 nM, 72 hours
Experimental: D. ULMA increases mitochondrial DNA content. C2C12 myotubes in 6 well plates were treated with vehicle (0.1% vol/vol DMSO) or 10 nM ULMA (in DMSO) for 72 h. Following which, total cellular DNA was isolated from these cells by standard procedure (using a genomic DNA isolation kit; Macherey Nagel; according to manufacturer's instructions) and the mitochondrial DNA content was measured by QRT-PCR based measurement of mitochondrial coxII (Mit-CoxII) and cytochrome b (Cytb) and normalized with genomic glycerol three phosphate dehydrogenase DNA level. Data represent mean±SEM from three independent experiments performed in triplicates. *p<0.05 as determined by two tailed unpaired student's t-test.
Adiponectin is also known to activate PGC-1α by indirectly deacetylating this protein through activation of sirt1 (M. Iwabu, T. Yamauchi, M. Okada-Iwabu, K. Sato, T. Nakagawa, M. Funata, M. Yamaguchi, S. Namiki, R. Nakayama, M. Tabata, H. Ogata, N. Kubota, I. Takamoto, Y. K. Hayashi, N. Yamauchi, H. Waki, M. Fukayama, I. Nishino, K. Tokuyama, K. Ueki, Y. Oike, S. Ishii, K. Hirose, T. Shimizu, K. Touhara, T. Kadowaki. Nature; 464(7293): 1313-1319. 2010), therefore PGC-1α acetylation status following ULMA treatment was checked in C2C12 cells. C2C12 myotubes plated in 10 cm dish were treated with vehicle (DMSO) or 10 nM ULMA in DMSO for 6 hours. […]

wistar rats [1] = experiment: Dexamethasone mediated cardiac hypertrophy in rats (heart weight/body weight ratio); assay type: in vivo, rat
Experimental: Following 15 d treatment with indicated compounds or vehicle, animals were euthanized and heart weight and body weight were measured and heart weight/body weight ratio were calculated and plotted. Data represents mean+/−SEM. N=6. *p<0.05 as determined by student's t-test.
(§1) Blood was collected from cardiac punctures.
Therefore, the heart weight/body weight ratio was measured in these rats (described in Example 6A-C).

wistar rats [2] = experiment: Dexamethasone-mediated reduction of food intake in rats; assay type: in vivo, rat
Experimental: Six to eight week old wistar rats (n=6 per group) were housed separately and treated as indicated in the example. Daily food intake was measured and plotted. […] Data represents mean+/−SEM.
as §1
Food intake was measured every alternate day by giving measured food to each cage in evening (5.00 PM) and collection of residual food in next morning (9.00 AM) and measuring it. The residual food was subtracted from the food given and plotted.

## O=C1c2c(cc(O)c([C@@H]3O[C@H](CO)[C@@H](O)[C@H](O)[C@H]3O)c2O)O[C@@H](c2ccc(O)c(O)c2)[C@@H]1O [ULMA, (2S,3S)-(+)-3′,4′,5,7-tetrahydroxydihydroflavonol-6-C-β-D-glucopyranoside]
C2C12 myotubes
  Cytochrome B (Cytb) DNA level: enhanced
  mitochondrial cytochrome oxidase II (COX-II) DNA level: enhanced
Wistar rats [1]; Dex + ULMA
  Dex-caused increase of heart/body weight ratio: significantly alleviated this increase
Wistar rats [1]; ULMA alone
  heart weight/body weight ratio in control animals: did not change
Wistar rats [2]; 5 mg/kg ULMA oral alone
  food intake in vehicle treated (ethanol: IP) rats: did not affect food intake
Wistar rats [2]; Dex + 5 mg/kg ULMA oral
  Dex-caused loss in food intake: alleviated it
